Assay results from ChEMBL document CHEMBL5331066, “Structure-guided design of novel HEPT analogs with enhanced potency and safety: From Isopropyl-HEPTs to Cyclopropyl-HEPTs” (Eur J Med Chem, 2023).

Experiments:
[1] = test system: Human immunodeficiency virus 1; assay: Antiviral activity against HIV1 harboring L100I mutant infected in human MT4 cells assessed as protection against virus-induced cytopathicity; format: functional, organism-based; conditions: Human immunodeficiency virus 1, MT4
[2] = Cytotoxicity against human MT4 cells assessed as reduction in cell viability; format: toxicity, cell-based
[3] = test system: Human immunodeficiency virus 1; assay: Antiviral activity against HIV1 harboring E138K mutant infected in human MT4 cells assessed as protection against virus-induced cytopathicity; format: functional, organism-based; conditions: Human immunodeficiency virus 1, MT4
[4] = test system: Human immunodeficiency virus 1; assay: Antiviral activity against wild type HIV1 IIIB infected in human MT4 cells assessed as protection against virus-induced cytopathicity; format: functional, organism-based; conditions: Human immunodeficiency virus 1, IIIB
[5] = Selectivity index, ratio of CC50 for cytotoxicity against human MT4 cells to EC50 for antiviral activity against wild type HIV1 IIIB infected in human MT4 cells; format: toxicity, cell-based; conditions: read-out: Ratio CC50/EC50
[6] = test system: Human immunodeficiency virus 1; assay: Antiviral activity against HIV1 harboring Y188L mutant infected in human MT4 cells assessed as protection against virus-induced cytopathicity; format: functional, organism-based; conditions: Human immunodeficiency virus 1, MT4
[7] = test system: Human immunodeficiency virus 1; assay: Antiviral activity against HIV1 harboring K103 N mutant infected in human MT4 cells assessed as protection against virus-induced cytopathicity; format: functional, organism-based; conditions: Human immunodeficiency virus 1, MT4
[8] = test system: Human immunodeficiency virus 1; assay: Antiviral activity against HIV1 harboring Y181C mutant infected in human MT4 cells assessed as protection against virus-induced cytopathicity; format: functional, organism-based; conditions: Human immunodeficiency virus 1, MT4
[9] = molecular target: Human immunodeficiency virus type 1 reverse transcriptase (Human immunodeficiency virus 1, UniProt Q72547); assay: Inhibition of wild type HIV-1 reverse transcriptase assessed as inhibition of biotin deoxyuridine triphosphate incorporation into […]

SMILES	EC50 [1]	CC50 [2]	EC50 [3]	EC50 [4]	selectivity ratio [5]	EC50 [6]	EC50 [7]	EC50 [8]	IC50 [9]
Cc1cccc(Sc2c(C3CC3)c(=O)[nH]c(=O)n2COCc2ccccc2)c1	0.17 µM	32.5 µM	0.16 µM	0.028 µM	1160	> 32.5 µM	2.76 µM	2.56 µM	–
COc1ccc(OC)c(Sc2c(C3CC3)c(=O)[nH]c(=O)n2COCc2ccccc2)c1	0.66 µM	33.4 µM	0.99 µM	0.22 µM	150	> 33.4 µM	> 33.4 µM	5.68 µM	–
O=c1[nH]c(=O)n(COCc2ccccc2)c(Sc2ccc(F)cc2)c1C1CC1	1.88 µM	38.8 µM	2.03 µM	0.75 µM	53	> 40.8 µM	> 40.8 µM	6.4 µM	–
COc1ccc(Sc2c(C3CC3)c(=O)[nH]c(=O)n2COCc2ccccc2)cc1	–	44.6 µM	–	> 44.6 µM	< 1	–	–	–	–
O=c1[nH]c(=O)n(COCc2ccccc2)c(Sc2ccccc2F)c1C1CC1	0.45 µM	34.7 µM	0.35 µM	0.043 µM	813	> 34.7 µM	4.99 µM	4.47 µM	0.06 µM
COc1cccc(OC)c1Sc1c(C2CC2)c(=O)[nH]c(=O)n1COCc1ccccc1	144 µM	> 284 µM	> 284 µM	6.7 µM	> 40	> 284 µM	> 284 µM	> 284 µM	–
O=c1[nH]c(=O)n(COCc2ccccc2)c(Sc2ccccc2)c1C1CC1	1.23 µM	49.9 µM	2.79 µM	0.039 µM	1250	> 30.7 µM	> 30.7 µM	9.83 µM	–
O=c1[nH]c(=O)n(COCc2ccccc2)c(Sc2cccc(F)c2F)c1C1CC1	0.5 µM	31.4 µM	0.5 µM	0.14 µM	224	> 31.4 µM	> 3.84 µM	> 31.4 µM	0.24 µM
O=c1[nH]c(=O)n(COCc2ccccc2)c(Sc2cccc(F)c2)c1C1CC1	0.25 µM	38.8 µM	0.13 µM	0.025 µM	1520	> 38.8 µM	2.99 µM	3.36 µM	0.04 µM
COc1ccc(Sc2c(C3CC3)c(=O)[nH]c(=O)n2COCc2ccccc2)c(OC)c1	–	30.9 µM	–	> 30.9 µM	< 1	–	–	–	–
CC(C)c1c(Sc2cccc3ccccc23)n(COCc2ccccc2)c(=O)[nH]c1=O	–	34 µM	–	0.063 µM	565	–	–	–	–
COc1cc(OC)cc(Sc2c(C3CC3)c(=O)[nH]c(=O)n2COCc2ccccc2)c1	1.79 µM	29.7 µM	3.07 µM	0.77 µM	38	> 29.7 µM	> 29.7 µM	9.63 µM	–
O=c1[nH]c(=O)n(COCc2ccccc2)c(Sc2cccc3ccccc23)c1C1CC1	23.1 µM	30.7 µM	31.6 µM	0.84 µM	36	> 177 µM	> 177 µM	24.5 µM	–
Cc1c(Sc2ccccc2)n(COCCO)c(=O)[nH]c1=O [HEPT]	–	740 µM	–	7 µM	106	–	–	–	–
Cc1ccnc2c1NC(=O)c1cccnc1N2C1CC1 [NEVIRAPINE]	1.28 µM	> 9.51 µM	0.14 µM	0.086 µM	–	> 9.51 µM	5.33 µM	7.04 µM	–
Cc1cn([C@H]2C[C@H](N=[N+]=[N-])[C@@H](CO)O2)c(=O)[nH]c1=O [ZIDOVUDINE]	0.016 µM	> 7.48 µM	–	0.028 µM	> 309	0.029 µM	0.026 µM	0.02 µM	2.2 µM
